Values quoted from earlier work in US20100029551A1, “Treatment Of Inflammatory Lung Conditions With Aerosolized Macrolide Antibiotics” (priority 2008, published 2010).

CO[C@]1(C)C[C@@H](C)C(=O)[C@H](C)[C@@H](O)[C@](C)(O)[C@@H](C(C)O)OC(=O)[C@H](C)[C@@H](O[C@H]2C[C@@](C)(OC)[C@@H](O)[C@H](C)O2)[C@H](C)[C@H]1O[C@@H]1O[C@H](C)C[C@H](N(C)C)[C@H]1O (some centres unmarked) [14-hydroxy clarithromycin]
Activity relative to clarithromycin (first-pass metabolite of clarithromycin): approximately twice as active as clarithromycin | Plasma half-life relative to clarithromycin (plasma): significantly longer plasma half-life than clarithromycin
